Experimental data reported in patent US8772488B2 (Shanghai Institute of Pharmaceutical Industry, priority 2009, dated 2014).

Legend:
[1] = Influence factor test (stability under heat, light, high humidity; HPLC purity); assay type: physicochemical
Procedure: Experimental method: refer to Pharmacopoeia of the People's Republic of China. 2005 ed. Part 2. Appendix XIX C
HPLC conditions: instrument: Agilent 1100
Chromatographic column: Phenomenex Hyperclone 5μ BDS C18
Mobile phase: acetonitrile: KH2PO4 (10 mM)=70:30
Column temperature: 40° C.

[2] = Solubility of acetic acid solvate (0.1N hydrogen chloride aqueous solution); assay type: physicochemical; conditions: for Solubility (0.1N hydrogen chloride aqueous solution), descriptive term: Chinese Pharmacopoeia 2005 General Notices
From the text: Sample Sources: the Same as Example 10
Experimental method: refer to Pharmacopoeia of the People's Republic of China. 2005 ed. Part 2. General Notices.

[3] = cited from earlier work
platelet aggregation = conditions: cited from earlier work

Purity (HPLC area normalization) tR 6.2 ([1]; 0 day)	Purity (HPLC area normalization) tR 6.2 ([1]; 60° C. for 5 days)	Purity (HPLC area normalization) tR 6.2 ([1]; 60° C. for 10 days)	Purity (HPLC area normalization) tR 6.2 ([1]; RH 92.5% 5 days)	Purity (HPLC area normalization) tR 6.2 ([1]; RH 92.5% 10 days)	Purity (HPLC area normalization) tR 6.2 ([1]; light for 5 days)	Purity (HPLC area normalization) tR 6.2 ([1]; light for 10 days)	Solubility (0.1N hydrogen chloride aqueous solution), descriptive term [2]	Compound	Stability of crystal A compared with crystal B ([1]; stability test)	Stability compared with X1 and X2 ([1]; under all the conditions of light, 60° C., and RH 92.5%)	Solubility compared with prasugrel hydrobromate and hydrochlorate [2]	Water solubility compared to hydrochloride [3]	Inhibition of platelet aggregation (platelet aggregation)
99.83	99.39	99.01	96.62	96.12	99.40	98.83	degraded	Br.CC(=O)Oc1cc2c(s1)CCN(C(C(=O)C1CC1)c1ccccc1F)C2 (stereo not drawn) [Example X2]				improved	
99.08	98.89	98.29	98.39	98.20	98.49	98.20	slightly soluble	CC(=O)Oc1cc2c(s1)CCN(C(C(=O)C1CC1)c1ccccc1F)C2 (stereo not drawn) [Example X1]					good activity
								maleate					good activity

Compound	Purity (HPLC area normalization) tR 6.2 ([1]; 0 day)	Purity (HPLC area normalization) tR 6.2 ([1]; 60° C. for 5 days)	Purity (HPLC area normalization) tR 6.2 ([1]; 60° C. for 10 days)	Purity (HPLC area normalization) tR 6.2 ([1]; RH 92.5% 5 days)	Purity (HPLC area normalization) tR 6.2 ([1]; RH 92.5% 10 days)	Purity (HPLC area normalization) tR 6.2 ([1]; light for 5 days)	Purity (HPLC area normalization) tR 6.2 ([1]; light for 10 days)	Solubility (0.1N hydrogen chloride aqueous solution), descriptive term [2]	Stability of crystal A compared with crystal B ([1]; stability test)	Stability compared with X1 and X2 ([1]; under all the conditions of light, 60° C., and RH 92.5%)	Solubility compared with prasugrel hydrobromate and hydrochlorate [2]	Water solubility compared to hydrochloride [3]	Inhibition of platelet aggregation (platelet aggregation)
CC(=O)Oc1cc2c(s1)CCN(C(C(=O)C1CC1)c1ccccc1F)C2 (stereo not drawn) [Example X3, 2-acetoxy-5-(α-cyclopropylcarbonyl-2fluorobenzyl)-4,5,6,7-tetrahydrothieno[3,2-c]pyridine hydrobromate]	99.84	99.72	99.46	99.65	99.50	99.56	99.57	easily soluble	better than crystal B	more stable	better solubility		
